Experimental data as given in patent US8822698B2, “Aminoacid derivatives, their process of preparation and their therapeutical uses as inhibitors of oncogenic signals by the Met family” (Universite D'Aix-Marseille, priority 2009, dated 2014).

Key:
Experiment in all cases: NCI 60 human tumour cell line screen
Format in all cases: cell-based
[1] = system: HOP-92; conditions: conc. 10^−5M; HOP-92, Non-Small Cell Lung Cancer
Source text: (§1) Compound of example 4 was screened in the NCI 60 human tumour cell line anticancer drug screen (Shoemaker et al Nature reviews 6, 2006, 813-823).

[2] = system: HCT-116; conditions: conc. 10^−5M; HCT-116, Colon Cancer
Source text: as §1

[3] = system: HOP-62; conditions: conc. 10^−5M; HOP-62, Non-Small Cell Lung Cancer
Source text: as §1

[4] = system: NCl•H226; conditions: conc. 10^−5M; NCl•H226, Non-Small Cell Lung Cancer
Source text: as §1

O=C(Cc1cc(C(F)(F)F)cc(C(F)(F)F)c1)N[C@@H](Cc1ccccc1)C(=O)Nc1ccc(-c2cn3c(n2)sc2ccccc23)cc1 [Example 4, (S)-2-(3,5-bis(trifluoromethyl)phenylacetamido)-3-phenyl-N-[4-(imidazo[2,1-b]benzothiazol-2-yl)phenyl]propanamide]
Growth Percent [1]: 71.89%
Growth Percent [2]: 21.40%
Growth Percent [3]: 80.02%
Growth Percent [4]: 90.93%
